Literature values in patent US11136362B2, “Peptide modulators of specific calcineurin protein-protein interactions” (The Board of Trustees of the Leland Stanford Junior …, priority 2016, dated 2021).

Molecular target: T1, TRPV1 (Homo sapiens, UniProt Q8NER1)
T1 construct: host or cells: human trial subjects (endogenous)
Settings: in vivo; cited from earlier work

T1 sequence (Q8NER1 whole entry): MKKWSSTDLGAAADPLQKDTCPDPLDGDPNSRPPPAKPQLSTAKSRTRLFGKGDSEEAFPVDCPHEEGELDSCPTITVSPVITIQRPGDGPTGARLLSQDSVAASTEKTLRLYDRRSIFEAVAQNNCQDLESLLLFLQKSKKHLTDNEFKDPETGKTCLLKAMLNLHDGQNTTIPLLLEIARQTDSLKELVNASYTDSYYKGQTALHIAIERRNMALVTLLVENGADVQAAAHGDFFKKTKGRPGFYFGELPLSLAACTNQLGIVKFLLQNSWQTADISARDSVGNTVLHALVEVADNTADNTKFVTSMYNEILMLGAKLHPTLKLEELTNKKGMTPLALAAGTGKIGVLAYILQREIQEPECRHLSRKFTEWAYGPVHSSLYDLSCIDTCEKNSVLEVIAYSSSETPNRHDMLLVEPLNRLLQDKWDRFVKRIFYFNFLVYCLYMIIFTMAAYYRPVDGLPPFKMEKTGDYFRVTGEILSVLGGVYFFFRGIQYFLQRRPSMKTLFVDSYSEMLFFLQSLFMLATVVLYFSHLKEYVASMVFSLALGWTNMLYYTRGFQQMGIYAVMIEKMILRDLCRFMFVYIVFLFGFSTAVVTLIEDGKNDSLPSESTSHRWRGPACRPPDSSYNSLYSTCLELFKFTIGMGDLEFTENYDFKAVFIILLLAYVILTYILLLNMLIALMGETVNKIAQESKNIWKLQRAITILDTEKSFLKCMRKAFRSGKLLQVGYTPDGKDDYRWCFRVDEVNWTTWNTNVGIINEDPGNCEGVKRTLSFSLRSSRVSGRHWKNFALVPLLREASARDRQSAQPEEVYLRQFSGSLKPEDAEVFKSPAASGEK

SMILES: CC(=O)Nc1nc2c(Oc3cc(-c4ccc(C(F)(F)F)cc4)ncn3)cccc2s1 [AMG517]
- adverse effect in human clinical trials: caused hyperthermia
